From PMC7381729, “A new class of PentixaFor- and PentixaTher-based theranostic agents with enhanced CXCR4-targeting efficiency” (Theranostics, 2020) come the findings set out here.

The target in series [1] is T1, human CXCR4 (hCXCR4) (Homo sapiens, UniProt P61073).
T1 construct: hCXCR4-expressing Jurkat human T-cell leukemia cells; endogenous in cells; host or cells: Jurkat human T-cell leukemia cells (whole cells)
Put plainly: Competition binding to hCXCR4, Jurkat cells, [125I]FC-131 as radioligand. The following applies: Jurkat cells 400.000 cells/sample, means ± SD of min. three separate experiments. How it is done:
Experiments were performed in triplicate with n=3 per concentration in each experiment. IC50 values were calculated using GraphPad Prism 6.01 (Graph Pad Software, San Diego, USA).
Figure 2 Binding affinities (IC50 in nM) of the respective ^natGa-, ^natLu-, ^natY- and ^natBi-complexes of PentixaFor (entry 1), PentixaTher (entry 2) and a series of CPCR4-(blue) and iodoCPCR4-(black) derived analogs with modified linker structure (entries 3-14) to human CXCR4 (hCXCR4). […] Each experiment was performed in triplicate, and results are means ± SD from a minimum of three separate experiments. TEXT PRINTED IN THE PICTURE: 1: ^natGa-complex IC50 [nM]: 24.8 ± 2.5; ^natLu-complex IC50 [nM]: 41 ± 12; ^natY-complex IC50 [nM]: 40 ± 27 | 2: ^natGa-complex IC50 [nM]: 6.1 ± 1.5; ^natLu-complex IC50 [nM]: 14.6 ± 1.0; ^natY-complex IC50 [nM]: 20.4 ± 0.3; ^natBi-complex IC50 [nM]: 24.4 ± 3.7 | 3: ^natGa-complex IC50 [nM]: 282 ± 90; ^natLu-complex IC50 [nM]: 12.5 ± 3.2; ^natY-complex IC50 [nM]: 216 ± 33; ^natBi-complex IC50 [nM]: 27 ± 14 | 4: ^natGa-complex IC50 [nM]: 14.4 ± 0.3; ^natLu-complex IC50 [nM]: 28 ± 9; ^natY-complex IC50 [nM]: 83 ± 30 | 5: ^natLu-complex IC50 [nM]: 106 ± 10 | 6: ^natGa-complex IC50 [nM]: 7.9 ± 1.1; ^natLu-complex IC50 [nM]: 5.9 ± 0.3; ^natY-complex IC50 [nM]: 6.7 ± 1.2; ^natBi-complex IC50 [nM]: 14.5 ± 0.2 | 7: ^natGa-complex IC50 [nM]: 47 ± 8; ^natLu-complex IC50 [nM]: 39 ± 1; ^natY-complex IC50 [nM]: 43 ± 2 | 8: ^natGa-complex IC50 [nM]: 3.6 ± 0.7; ^natLu-complex IC50 [nM]: 3.5 ± 0.3; ^natY-complex IC50 [nM]: 4.1 ± 1.3; ^natBi-complex IC50 [nM]: 3.5 ± 0.4 | 9: ^natGa-complex IC50 [nM]: 8.9 ± 3.8; ^natLu-complex IC50 [nM]: 8.0 ± 3.1; ^natY-complex IC50 [nM]: 6.3 ± 2.5 | 10: ^natGa-complex IC50 [nM]: 2.4 ± 0.1; ^natLu-complex IC50 [nM]: 3.6 ± 1.1; ^natY-complex IC50 [nM]: 2.4 ± 0.2; ^natBi-complex IC50 [nM]: 38 ± 25 | 11: ^natGa-complex IC50 [nM]: 9.7 ± 2.8; ^natLu-complex IC50 [nM]: 5.4 ± 1.6; ^natY-complex IC50 [nM]: 8.7 ± 2.9 | 12: ^natGa-complex IC50 [nM]: 1.4 ± 0.2; ^natLu-complex IC50 [nM]: 2.1 ± 0.3; ^natY-complex IC50 [nM]: 2.1 ± 0.3; ^natBi-complex IC50 [nM]: 2.9 ± 0.1 | 13: ^natGa-complex IC50 [nM]: 0.4 ± 0.1; ^natLu-complex IC50 [nM]: 1.5 ± 0.1; ^natY-complex IC50 [nM]: 1.5 ± 0.1 | 14: ^natGa-complex IC50 [nM]: 2.6 ± 1.0; ^natLu-complex IC50 [nM]: 1.7 ± 0.6; ^natY-complex IC50 [nM]: 1.6 ± 0.5; ^natBi-complex IC50 [nM]: 1.8 ± 0.8

The nature of series [2]: Small animal PET imaging in Daudi xenograft bearing mice. It counts as in vivo. Conditions: CB17 SCID, mouse, iv, total radioactivity, 90 min p.i., dynamic PET, ROI analysis, n=1 per compound. How it is done: Small aminal PET imaging studies were performed using a Siemens Inveon PET scanner. Animals were anesthetized with isoflurane and injected via the tail vein with 10 to 15 MBq (0.1 nmol) of the respective tracer. Dynamic imaging (n=1 per compound) was performed after on-bed injection for 1.5 h, and static images (n=1 per compound) were acquired at 1 h p.i. with an acquisition time of 15 min. Data analysis was performed using the Inveon Research Workplace software. Images were reconstructed using a 3D ordered-subsets expectation maximum (OSEM3D) algorithm without scanner and attenuation correction. Time-activity curves (Figure 4) were obtained by generating isocontour regions of interest (ROI) for the tumor and the heart content (as a surrogate for blood activity), as well as by defining two spherical ROIs (each 23.4 mm^3) in the thigh area (muscle) and areas of homogenous tracer uptake in the liver, followed by plotting of average activity ± SD per volume in these ROIs over time.  Figure 4 Results from small animal PET imaging using [^68Ga]PentixaFor (top row), [^68Ga]DOTA-r-a-ABA-CPCR4 (middle row) and [^68Ga]DOTA-r-a-ABA-iodoCPCR4 (bottom row) in Daudi xenograft bearing CB17 SCID mice. Images on the left (MIP) were obtained by static imaging (1h p.i., n=1), the time activity curves (TAC) on the right were acquired by dynamic PET imaging (0-90 min p.i., n=1).

Series [3] can be described thus: Biodistribution in Daudi xenograft bearing mice. It counts as in vivo, mouse. Conditions: female, CB-17 SCID, mouse, iv, total radioactivity, 1h p.i., tracer only, i.v., γ-counter, means ± SD, n=4-5 (68Ga: n=4). How it is done: The biodistribution of selected compounds was investigated in Daudi (human B-cell lymphoma) xenograft bearing female CB-17 SCID mice (6-8 weeks, Charles River, Sulzfeld, Germany), [29]. All animal experiments were performed in accordance with current animal welfare regulations in Germany (approval #55.2-1-54-2532-71-13).
Animals (n=4-5 per group) were injected intravenously with 5-10 MBq (0.08-0.11 nmol peptide per mouse) of the respective ^68Ga- and^ 177Lu-labeled CXCR4 ligands in PBS (100 µL) into the tail vein under isoflurane anesthesia. CXCR4-specificity of binding was determined by coinjection of 50 µg AMD3100 per mouse. The animals were sacrificed 1, 6 and 48h post injection (p.i.), and the organs of interest were dissected. The radioactivity was measured in weighted tissue samples using a γ-counter. Data are expressed in % ID/g tissue (mean ± SD).

The nature of series [4]: Lipophilicity, modified shake-flask method. The class given is physicochemical. Conditions: O/PBS, radiolabeled compound, means ± SD (n=6). How it is done:
The lipophilicity (log PO/PBS) of the ^68Ga- and ^177Lu-labeled compounds in this study was determined via a modified shake-flask method.

The mark [5] stands for this setting: natBi-complex, read-out: ^natBi-complex IC50 to hCXCR4.
Where [6] appears, read: natGa-complex, read-out: ^natGa-complex IC50 to hCXCR4.
The mark [7] stands for this setting: natLu-complex, read-out: ^natLu-complex IC50 to hCXCR4.
The mark [8] stands for this setting: natY-complex, read-out: ^natY-complex IC50 to hCXCR4.

Read-outs that look alike come from different tables or passages of the source. Where a SMILES comes first, the peptide text is derived from it. Side-chain parts run from the residue outwards. [ ]: non-standard residue; d: D form. The star is where a group is joined. DOTA = O=C(O)CN1CCN(CC(=O)O)CCN(CC(=O)*)CCN(CC(=O)O)CC1; dTyr(3-I) = N[C@H](Cc1ccc(O)c(I)c1)C(=O)O; 2Nal = N[C@@H](Cc1ccc2ccccc2c1)C(=O)O; dNMeOrn = CN[C@H](CCCN)C(=O)O; 4Abz = Nc1ccc(C(=O)O)cc1

T1 sequence (P61073 whole entry): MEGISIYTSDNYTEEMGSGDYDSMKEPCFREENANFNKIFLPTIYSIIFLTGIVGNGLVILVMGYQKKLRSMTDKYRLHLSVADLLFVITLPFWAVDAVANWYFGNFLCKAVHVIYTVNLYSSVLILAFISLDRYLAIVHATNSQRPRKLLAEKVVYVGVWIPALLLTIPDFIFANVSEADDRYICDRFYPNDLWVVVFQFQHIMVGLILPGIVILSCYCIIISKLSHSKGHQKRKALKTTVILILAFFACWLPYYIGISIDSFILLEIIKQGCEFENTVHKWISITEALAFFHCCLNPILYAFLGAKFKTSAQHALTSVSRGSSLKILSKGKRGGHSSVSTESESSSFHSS

Regarding “DOTA-AMBS-iodoCPCR4 (head to tail) [entry 2, PentixaTher]”, the half-maximal inhibitory concentration (IC50) was 24.4 ± 3.7 nM in series [1] (setting [5]), 6.1 ± 1.5 nM in series [1] (setting [6]), 14.6 ± 1 nM in series [1] (setting [7]) and 20.4 ± 0.3 nM in series [1] (setting [8]).

As to `C[C@@H](NC(=O)[C@@H](CCCNC(=N)N)NC(=O)CN1CCN(CC(=O)O)CCN(CC(=O)O)CCN(CC(=O)O)CC1)C(=O)Nc1ccc(C(=O)NCCC[C@@H]2C(=O)N[C@@H](CCCNC(=N)N)C(=O)N[C@@H](Cc3ccc4ccccc4c3)C(=O)NCC(=O)N[C@H](Cc3ccc(O)c(I)c3)C(=O)N2C)cc1` [[^68Ga]DOTA-r-a-ABA-iodoCPCR4, metal not drawn] (cyclo([2Nal]G[dTyr(3-I)][dNMeOrn]([4Abz-dA-dR-DOTA])R)), the tissue uptake per volume at 1.5 h came out at 4.3 ± 0.4 %ID/mL in series [2] (kidney, read-out: Kidney uptake in PET); 6.1 ± 0.1 %ID/mL in series [2] (liver, average ± SD per volume in ROI, read-out: Liver uptake in PET); 14.2 ± 1.5 %ID/mL in series [2] (tumor (Daudi xenograft), Daudi xenograft, read-out: Tumor accumulation in PET). Further, the tissue uptake at 1 h was determined as 3.71 ± 0.28 %ID/g in series [3] (blood, read-out: Biodistribution blood); 0.65 ± 0.29 %ID/g in series [3] (colon, read-out: Biodistribution colon); 1.41 ± 0.16 %ID/g in series [3] (femur, read-out: Biodistribution femur); 1.56 ± 0.2 %ID/g in series [3] (heart, read-out: Biodistribution heart); 6.25 ± 0.52 %ID/g in series [3] (kidney, read-out: Biodistribution kidney); 0.49 ± 0.08 %ID/g in series [3] (muscle, read-out: Biodistribution muscle). In addition, the tissue uptake at 1 h came to 0.88 ± 0.06 %ID/g in series [3] (pancreas, read-out: Biodistribution pancreas) and 1.18 ± 0.03 %ID/g in series [3] (small intestine, read-out: Biodistribution small intestine).

On to “DOTAGA-ABA-iodoCPCR4 (head to tail) [entry 4]”, for which the half-maximal inhibitory concentration (IC50) in series [1] (setting [6]) came to 14.4 ± 0.3 nM; in series [1] (setting [7]) it was 28 ± 9 nM; in series [1] (setting [8]), 83 ± 30 nM.

In the case of DOTA-k-G-ABA-CPCR4 [entry 9], the results for the 50% inhibitory concentration (IC50) in series [1] (setting [6]), in series [1] (setting [7]) and in series [1] (setting [8]) were 8.9 ± 3.8 nM, 8 ± 3.1 nM and 6.3 ± 2.5 nM, respectively.

For “DOTA-d-ABA-iodoCPCR4 (head to tail) [entry 5]”, the concentration for half-maximal inhibition (IC50) in series [1] (setting [7]) came to 106 ± 10 nM.

As for “DOTAGA-G-ABA-iodoCPCR4 (head to tail) [entry 7]”, the IC50 in series [1] (setting [6]) was 47 ± 8 nM; in series [1] (setting [7]) it was 39 ± 1 nM; in series [1] (setting [8]) it was 43 ± 2 nM.

Turning to `CN1C(=O)[C@@H](Cc2ccc(O)c(I)c2)NC(=O)CNC(=O)[C@H](Cc2ccc3ccccc3c2)NC(=O)[C@H](CCCNC(=N)N)NC(=O)[C@H]1CCCNC(=O)c1ccc(NC(=O)CNC(=O)[C@@H](CCCNC(=N)N)NC(=O)CN2CCN(CC(=O)O)CCN(CC(=O)O)CCN(CC(=O)O)CC2)cc1` [[^177Lu]DOTA-r-G-ABA-iodoCPCR4] [metal not drawn] (cyclo([2Nal]G[dTyr(3-I)][dNMeOrn]([4Abz-Gly-dR-DOTA])R)), in series [4], the “log PO/PBS” value is given as -2.7 ± 0.05.

For “DOTA-ABA-iodoCPCR4 (head to tail) [entry 3]”, the IC50 in series [1] (setting [5]) is 27 ± 14 nM; in series [1] (setting [6]) it was 282 ± 90 nM; in series [1] (setting [7]), 12.5 ± 3.2 nM; in series [1] (setting [8]), 216 ± 33 nM.

In the case of `CN1C(=O)[C@@H](Cc2ccc(O)c(I)c2)NC(=O)CNC(=O)[C@H](Cc2ccc3ccccc3c2)NC(=O)[C@H](CCCNC(=N)N)NC(=O)[C@H]1CCCNC(=O)c1ccc(NC(=O)CNC(=O)[C@@H](CCCNC(=N)N)NC(=O)CN2CCN(CC(=O)O)CCN(CC(=O)O)CCN(CC(=O)O)CC2)cc1` [[^68Ga]DOTA-r-G-ABA-iodoCPCR4] [metal not drawn] (cyclo([2Nal]G[dTyr(3-I)][dNMeOrn]([4Abz-Gly-dR-DOTA])R)), in series [4], the “log PO/PBS” value was -3.0 ± 0.02.

“DOTA-G-ABA-iodoCPCR4 (head to tail) [entry 6]”: the IC50 in series [1] (setting [5]) is 14.5 ± 0.2 nM; in series [1] (setting [6]), 7.9 ± 1.1 nM; in series [1] (setting [7]), 5.9 ± 0.3 nM; in series [1] (setting [8]), 6.7 ± 1.2 nM.

For “PentixaFor [entry 1, reference compound]”, the IC50 amounted to 24.8 ± 2.5 nM in series [1] (setting [6]), 41 ± 12 nM in series [1] (setting [7]) and 40 ± 27 nM in series [1] (setting [8]).

With DOTA-r-G-ABA-CPCR4 [entry 11], the half-inhibitory concentration (IC50) in series [1] (setting [6]) was 9.7 ± 2.8 nM; in series [1] (setting [7]), 5.4 ± 1.6 nM; in series [1] (setting [8]), 8.7 ± 2.9 nM.

For “DOTA-k-G-ABA-iodoCPCR4 (head to tail) [entry 10]”, the half-inhibitory concentration (IC50) in series [1] (setting [5]) was 38 ± 25 nM; in series [1] (setting [6]) it was 2.4 ± 0.1 nM; in series [1] (setting [7]), 3.6 ± 1.1 nM; in series [1] (setting [8]), 2.4 ± 0.2 nM.
